This experiment deals with Mycobacterium tuberculosis. In kind it is cell-based.
Setting [1] is: anti-tuberculosis drug alone, […].

Read-outs that look alike come from different tables or passages of the source.

The values that follow come from patent US10709765B2, “Composition for inhibiting survival or growth of tubercle bacillus by adjusting polarization of macrophage, and method using same” (priority 2016, dated 2020).

On to `CC[C@@H](CO)NCCN[C@@H](CC)CO` [Ethambutol], for which the “number of intracellular Mycobacterium tuberculosis” value (“number” for short) is “the number of Mycobacterium tuberculosis was reduced”.
Turning to `NNC(=O)c1ccncc1` [Isoniazid], the “number” value under setting [1] is listed as “the number of Mycobacterium tuberculosis was reduced”.
On to `NC(=O)c1cnccn1` [Pyrazinamide], for which the “number” value under setting [1] is listed as “the number of Mycobacterium tuberculosis was reduced”.
